Target: human TPH1 (Homo sapiens (Human), UniProt P17752)
Test: Biochemical in vitro assay using fluorescence readout (TPH1 inhibition)
Excerpt: Biochemical In Vitro Assay Using Fluorescence Readout
To generate the enzyme, full length human TPH1 is cloned into the plasmid pET20b(+) (Novagen) and expressed in E. coli. The bacterial cells are ruptured by sonication on ice and the lysate is cleared by centrifugation. The resulting protein in the pellet is re-extracted and TPH1 is purified from the obtained lysate by affinity chromatography using a pterin cosubstrate analog immobilized to the resin of the column. The protein is further purified by size exclusion chromatography to remove protein aggregates. The activity of TPH1 is determined by using a fluorescence assay. The enzyme activity assay is carried out at 15° C. with atmosphere oxygen for the duration of 60 minutes in a volume of 64 μl. The reaction is carried out in a 0.1 M Tris-HCl buffer, adjusted to pH 7.6, containing 1 mM DTT, 0.2 mg/mL catalase, 100 μM (±)-6-methyl-5,6,7,8-tetrahydropterine dihydrochloride, 40 μM L-tryptophan, and 40-80 nM of TPH1. The reaction is started by bringing together L-tryptophan with all the other reaction substituents and stopped by quenching with perchloric acid (HClO4). The amount of 5-hydroxy-L-tryptophan produced during the enzymatic reaction is determined by fluorescence readout. Fluorescence, as determined at 540 nm when excited at 300 nm wavelength, increases proportionally to the 5-hydroxy-L-tryptophan formed. Compounds are prepared as 10 mM stock solution in DMSO, then diluted in 384-well plates using DMSO followed by a transfer of the dilutions into the assay plate. Fluorescence is measured for each well and the fluorescence at 540 nm wavelength is compared to the fluorescence of the vehicle in place of compound. Inhibitory activities of example compounds with respect to the TPH1 protein are determined by calculating the IC50 value (the concentration of compound needed to inhibit 50% of the enzyme activity). The calculated IC50 values may fluctuate depending on the daily biochemical assay performance. Fluctuations of this kind are known to those skilled in the art.

[1] = human TPH1, fluorescence readout
[2] = full length human TPH1, 40 μM L-tryptophan, 15° C., 60 minutes, fluorescence at 540 nm, mean if determined several times

Sequence of human TPH1 (P17752 whole entry): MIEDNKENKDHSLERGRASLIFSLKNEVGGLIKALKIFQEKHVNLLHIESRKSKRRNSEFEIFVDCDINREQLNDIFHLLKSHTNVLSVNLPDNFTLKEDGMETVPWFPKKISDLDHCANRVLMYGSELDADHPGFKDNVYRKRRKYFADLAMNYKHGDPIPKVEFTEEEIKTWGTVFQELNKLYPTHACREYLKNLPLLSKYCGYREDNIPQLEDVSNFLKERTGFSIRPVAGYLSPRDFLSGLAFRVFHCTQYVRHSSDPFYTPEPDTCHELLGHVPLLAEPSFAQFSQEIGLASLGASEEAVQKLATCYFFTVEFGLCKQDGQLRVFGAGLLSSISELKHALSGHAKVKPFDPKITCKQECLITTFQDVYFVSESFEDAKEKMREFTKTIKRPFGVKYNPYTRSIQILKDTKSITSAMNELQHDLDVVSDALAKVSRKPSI

SMILES	IC50 [1]	IC50 [2]
CCc1nc(N2CCCS2(=O)=O)ccc1OCC(=O)N1CCc2nc3sc(CF)nn3c2C1c1ccc(Cl)cc1F (stereo not shown) [Example 7.1.3, 1-(5-(4-chloro-2-fluorophenyl)-2-(fluoromethyl)-7,8-dihydro-[1,3,4]thiadiazolo[2′,3′:2,3]imidazo[4,5-c]pyridin-6(5H)-yl)-2-((6-(1,1-dioxidoisothiazolidin-2-yl)-2-ethylpyridin-3-yl)oxy)ethan-1-one]	0.006 µM	
Cc1nn2c3c(nc2s1)CCN(C(=O)COc1ccc(C(=O)N(C)C)nc1Cl)C3c1ncccc1F (stereo not shown) [Example 1.35.2, 6-chloro-5-(2-(5-(3-fluoropyridin-2-yl)-2-methyl-7,8-dihydro-[1,3,4]thiadiazolo[2′,3′:2,3]imidazo[4,5-c]pyridin-6(5H)-yl)-2-oxoethoxy)-N,N-dimethylpicolinamide]	0.045 µM	
O=C(COc1ccc(CN2CCOCC2)cc1Cl)N1CCc2nc3sccn3c2C1c1cnn(-c2ccccc2)c1 (stereo not shown) [Example 6.13.5, 2-(2-chloro-4-(morpholinomethyl)phenoxy)-1-(5-(1-phenyl-1H-pyrazol-4-yl)-7,8-dihydrothiazolo-[2′,3′:2,3]imidazo[4,5-c]pyridin-6(5H)-yl)ethanone]	0.007 µM	
CCc1nc(C)c(C2c3c(nc4sc(C)nn34)CCN2C(=O)COc2ccc(NS(C)(=O)=O)nc2Cl)s1 (stereo not shown) [Example 1.72.1, N-(6-chloro-5-(2-(5-(2-ethyl-4-methylthiazol-5-yl)-2-methyl-7,8-dihydro-[1,3,4]thiadiazolo[2′,3′:2,3]imidazo-[4,5-c]pyridin-6(5H)-yl)-2-oxoethoxy)pyridin-2-yl)methanesulfonamide]	0.022 µM	
CS(=O)(=O)Nc1ccc(OCC(=O)N2CCc3nc4sc(C(F)F)nn4c3[C@@H]2c2ccc(Cl)cc2F)c(Cl)n1 [Example 8.1.4]	0.012 µM	
COC(=O)c1cnc(C2c3c(nc4sc(C)nn34)CCN2C(=O)COc2ccc(N3CC(F)(F)C3)nc2Cl)s1 (stereo not shown) [Example 1.28.4, Methyl 2-(6-(2-((2-chloro-6-(3,3-difluoroazetidin-1-yl)pyridin-3-yl)oxy)acetyl)-2-methyl-5,6,7,8-tetrahydro-[1,3,4]thiadiazolo[2′,3′:2,3]imidazo[4,5-c]pyridin-5-yl)thiazole-5-carboxylate]	0.017 µM	
CNc1ccc(OCC(=O)N2CCc3nc4sc(C)nn4c3C2c2ccc(Cl)nc2F)c(Cl)n1 (stereo not shown) [Example 1.16.3, 1-(5-(6-chloro-2-fluoropyridin-3-yl)-2-methyl-7,8-dihydro-[1,3,4]thiadiazolo[2′,3′:2,3]imidazo[4,5-c]pyridin-6(5H)-yl)-2-((2-chloro-6-(methylamino)pyridin-3-yl)oxy)ethanone]	0.008 µM	
Cc1nn2c3c(nc2s1)CCN(C(=O)COc1ccc(F)cc1F)C3c1ccc(C2CC2)cc1F (stereo not shown) [Example 1.6.1, 1-(5-(4-cyclopropyl-2-fluorophenyl)-2-methyl-7,8-dihydro-[1,3,4]thiadiazolo[2′,3′:2,3]imidazo[4,5-c]pyridin-6(5H)-yl)-2-(2,4-difluorophenoxy)ethanone]	0.013 µM	
Cc1nn2c3c(nc2s1)CCN(C(=O)COc1cc(F)c(I)nc1Cl)C3c1ncc(C2CC2)cc1F (stereo not shown) [Example 1.14.6, 2-((2-chloro-5-fluoro-6-iodopyridin-3-yl)oxy)-1-(5-(5-cyclopropyl-3-fluoropyridin-2-yl)-2-methyl-7,8-dihydro-[1,3,4]thiadiazolo[2′,3′:2,3]imidazo[4,5-c]pyridin-6(5H)-yl)ethanone]	0.006 µM	
COc1ccc(C2c3c(nc4sccn34)CCN2C(=O)COc2ccc(CN3CCOCC3)cc2Cl)cc1OC (stereo not shown) [Example 6.1.2, 2-(2-chloro-4-(morpholinomethyl)phenoxy)-1-(5-(3,4-dimethoxyphenyl)-7,8-dihydrothiazolo[2′,3′:2,3]-imidazo[4,5-c]pyridin-6(5H)-yl)ethanone]	0.005 µM	
Cc1nn2c3c(nc2s1)CCN(C(=O)COc1ccc(N2CC(F)(F)C2)nc1Cl)C3c1cnc(N(C)C)s1 (stereo not shown) [Example 1.22.8, 2-((2-Chloro-6-(3,3-difluoroazetidin-1-yl)pyridin-3-yl)oxy)-1-(5-(2-(dimethylamino)-thiazol-5-yl)-2-methyl-7,8-dihydro-[1,3,4]thiadiazolo[2′,3′:2,3]imidazo[4,5-c]pyridin-6(5H)-yl)ethanone]		0.019 µM
Cc1nn2c3c(nc2s1)CCN(C(=O)COc1ccc(N2CCOCC2)cc1Cl)C3c1cnc(C2CC2)nc1C (stereo not shown) [Example 1.10.4, 2-(2-chloro-4-morpholinophenoxy)-1-(5-(2-cyclopropyl-4-methylpyrimidin-5-yl)-2-methyl-7,8-dihydro-[1,3,4]thiadiazolo [2′,3′:2,3]imidazo[4,5-c]pyridin-6(5H)-yl)ethanone]	0.018 µM	
Cc1nn2c3c(nc2s1)CCN(C(=O)COc1ccc(N2CCOCC2)nc1Cl)C3c1csc(CO)c1 (stereo not shown) [Example 1.45.1, 2-((2-Chloro-6-morpholinopyridin-3-yl)oxy)-1-(5-(5-(hydroxymethyl)-thiophen-3-yl)-2-methyl-7,8-dihydro-[1,3,4]thiadiazolo[2′,3′:2,3]imidazo[4,5-c]pyridin-6(5H)-yl)ethanone]		0.033 µM
Cc1nn2c3c(nc2s1)CCN(C(=O)COc1ccc(N(C)C)nc1Cl)C3c1cc(CN(C)C)cs1 (stereo not shown) [Example 1.8.4, 2-((2-chloro-6-(dimethylamino)pyridin-3-yl)oxy)-1-(5-(4-((dimethylamino)methyl)thiophen-2-yl)-2-methyl-7,8-dihydro-[1,3,4]thiadiazolo[2′,3′:2,3]imidazo[4,5-c]pyridin-6(5H)-yl)ethanone]	0.106 µM	
Cc1nn2c3c(nc2s1)CCN(C(=O)COc1ccc(N2CCOCC2)nc1Cl)C3c1cnc(N2CC(F)(F)C2)s1 (stereo not shown) [Example 1.49.1, 2-((2-Chloro-6-morpholinopyridin-3-yl)oxy)-1-(5-(2-(3,3-difluoro-azetidin-1-yl)thiazol-5-yl)-2-methyl-7,8-dihydro-[1,3,4]thiadiazolo[2′,3′:2,3]imidazo[4,5-c]pyridin-6(5H)-yl)-ethanone]		0.015 µM
Cc1nn2c3c(nc2s1)CCN(C(=O)COc1ccc(Cl)cc1C)C3c1cc(CN(C)C)cs1 (stereo not shown) [Example 1.8.3, 2-(4-chloro-2-methylphenoxy)-1-(5-(4-((dimethylamino)methyl)thiophen-2-yl)-2-methyl-7,8-dihydro-[1,3,4]thiadiazolo [2′,3′:2,3]imidazo[4,5-c]pyridin-6(5H)-yl)ethanone]	0.095 µM	
Cc1nn2c3c(nc2s1)CCN(C(=O)COc1cnc(C(F)(F)F)nc1Cl)C3c1ccc(Cl)cc1F (stereo not shown) [Example 1.4.36, 2-((4-chloro-2-(trifluoromethyl)pyrimidin-5-yl)oxy)-1-(5-(4-chloro-2-fluorophenyl)-2-methyl-7,8-dihydro-[1,3,4]thiadiazolo[2′,3′:2,3]imidazo[4,5-c]pyridin-6(5H)-yl)ethanone]	0.038 µM	
Cc1nn2c3c(nc2s1)CCN(C(=O)COc1ccc(N2CCOCC2)nc1Cl)C3c1cnc(N2CCOCC2)s1 (stereo not shown) [Example 1.7.2, 2-((2-chloro-6-morpholinopyridin-3-yl)oxy)-1-(2-methyl-5-(2-morpholinothiazol-5-yl)-7,8-dihydro-[1,3,4]thiadiazolo [2′,3′:2,3]imidazo[4,5-c]pyridin-6(5H)-yl)ethanone]	0.032 µM	
CCNC(=O)Nc1nc(C2c3c(nc4sc(C)nn34)CCN2C(=O)COc2ccc(N3CCOCC3)nc2Cl)cs1 (stereo not shown) [Example 1.47.1, 1-(4-(6-(2-((2-chloro-6-morpholinopyridin-3-yl)oxy)acetyl)-2-methyl-5,6,7,8-tetrahydro-[1,3,4]thiadiazolo[2′,3′:2,3]imidazo[4,5-c]pyridin-5-yl)thiazol-2-yl)-3-ethylurea]	0.018 µM	
Cc1nn2c3c(nc2s1)CCN(C(=O)COc1ccc(C2(N(C)C)CC2)nc1Cl)C3c1ccc(Cl)cc1F (stereo not shown) [Example 1.4.44, 1-(5-(4-chloro-2-fluorophenyl)-2-methyl-7,8-dihydro-[1,3,4]thiadiazolo[2′,3′:2,3]imidazo[4,5-c]pyridin-6(5H)-yl)-2-((2-chloro-6-(1-(dimethylamino)cyclopropyl)pyridin-3-yl)oxy)ethanone]	0.051 µM	
COC(=O)c1ccc(C2c3c(nc4sc(C)nn34)CCN2C(=O)COc2ccc(NS(C)(=O)=O)nc2Cl)c(F)c1 (stereo not shown) [Example 1.79.1, methyl-4-(6-(2-((2-chloro-6-(methylsulfonamido)pyridin-3-yl)oxy)acetyl)-2-methyl-5,6,7,8-tetrahydro-[1,3,4]thiadiazolo[2′,3′:2,3]imidazo[4,5-c]pyridin-5-yl)-3-fluorobenzoate]	0.017 µM	
CCn1nc(C(=O)N(C)C)cc1OCC(=O)N1CCc2nc3sc(C)nn3c2C1c1sccc1F (stereo not shown) [Example 1.23.13, 1-ethyl-5-(2-(5-(3-fluorothiophen-2-yl)-2-methyl-7,8-dihydro-[1,3,4]thiadiazolo[2′,3′:2,3]imidazo[4,5-c]pyridin-6(5H)-yl)-2-oxoethoxy)-N,N-dimethyl-1H-pyrazole-3-carboxamide]	0.103 µM	

Source: patent publication US9765092B2, “Tricyclic piperidine compounds” (ACTELION PHARMACEUTICALS LTD, priority 2013, dated 2017)
